Earlier results as cited in patent US20040112375A1, “Predicting outcome of hyperbaric oxygen therapy treatment with nitric oxide bioavailability” (priority 2002, published 2004).

Row | Molecule | fall of plasma isoprostane levels (diabetic men, 600 mg twice daily for seven days) [%] | effect on isoprostane levels in biological fluids (in vivo)
1 | 2-(2,3-dihydro-5-acetoxy-4,6,7-trimethylbenzofuranyl) acetic acid [raxofelast] | 50 | –
2 | Cc1c(C)c2c(c(C)c1O)CC[C@@](C)(CCC[C@H](C)CCC[C@H](C)CCCC(C)C)O2 [alpha tocopherol] | – | reduce such isoprostane levels
